Results taken from paper PMC6664820, “Novel natural and synthetic inhibitors of solute carriers SGLT1 and SGLT2” (Pharmacology Research & Perspectives, 2019).
“And” between values parts separate entries of the source, which are not always exact repeats. Identical values can stand only once. Counter-ions that a name gives are not always drawn. Like-named read-outs stand apart in the source and are kept apart here.

Key:
[1] = target: T1, hSGLT2 (Homo sapiens, UniProt P31639); experiment: SGLT2 inhibition assay for validation of screening hits and similar compounds (1‐NBD‐glucose uptake, CHO‐hSGLT2 cells); format: cell-based; design: activity: dose or concentration left out as unconfirmed; details: for remaining activity at 5 µM / remaining activity at 50 µM: 0.5 h, read-out: NORMALIZED SGLT2 ACTIVITY (%); for activity: compound, normalized 1-NBD-glucose uptake, CHO-hSGLT2 cells; for SGLT2/SGLT1 ACTIVITY RATIO 5 uM Mean: ratio of normalized SGLT2 to SGLT1 activity at 5 uM
T1 sequence (P31639 1-672): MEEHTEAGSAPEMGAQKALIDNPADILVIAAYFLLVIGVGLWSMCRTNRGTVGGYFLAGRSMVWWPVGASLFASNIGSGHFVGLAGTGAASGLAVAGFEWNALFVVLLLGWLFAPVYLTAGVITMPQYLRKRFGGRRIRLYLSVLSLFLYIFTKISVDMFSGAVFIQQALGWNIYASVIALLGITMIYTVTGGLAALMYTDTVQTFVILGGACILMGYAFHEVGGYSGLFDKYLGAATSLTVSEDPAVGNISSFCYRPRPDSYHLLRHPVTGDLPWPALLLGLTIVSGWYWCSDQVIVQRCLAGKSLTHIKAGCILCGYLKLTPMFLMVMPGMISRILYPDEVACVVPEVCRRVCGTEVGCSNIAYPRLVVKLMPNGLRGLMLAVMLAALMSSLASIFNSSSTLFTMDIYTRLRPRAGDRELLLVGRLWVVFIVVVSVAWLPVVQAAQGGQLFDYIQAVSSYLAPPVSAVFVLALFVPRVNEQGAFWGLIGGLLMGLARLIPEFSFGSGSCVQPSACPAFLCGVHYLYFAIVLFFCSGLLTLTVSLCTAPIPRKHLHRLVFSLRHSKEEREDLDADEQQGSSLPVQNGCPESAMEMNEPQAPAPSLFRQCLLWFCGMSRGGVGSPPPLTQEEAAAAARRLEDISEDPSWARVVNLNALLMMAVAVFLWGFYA

[2] = tested on: CHO‐hSGLT1/2 cells; experiment: Cytotoxicity assay (ToxiLight, adenylate kinase leakage into CHO‐SGLT1/2 inhibition assay media); design: CYTOTOXICITY / CY[…], mean / CYTOTOXICITY (% of vehicle control) Mean / CYTOTOXICITY, mean / CY[…] (% of vehicle control) Mean: dose or concentration left out as unconfirmed; details: mean; for CY[…] 50 mM: at 50 mM (so in the source);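 on all read-outs here: bioluminescent read-out of adenylate kinase released from lysed cells into the medium, given relative to DMSO vehicle control defined as 0%, higher meaning more cytolysis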
[3] = target: T2, SGLT1 (Homo sapiens, UniProt P13866); experiment: SGLT1 inhibition assay for validation of screening hits and similar compounds (1‐NBD‐glucose uptake, CHO‐hSGLT1 cells); format: cell-based; design: activity: dose or concentration left out as unconfirmed; details: for remaining activity at 5 µM / remaining activity at 50 µM: 0.5 h, read-out: NORMALIZED SGLT1 ACTIVITY (%); for activity: compound, normalized 1-NBD-glucose uptake, CHO-hSGLT1 cells
T2 sequence (P13866 1-664): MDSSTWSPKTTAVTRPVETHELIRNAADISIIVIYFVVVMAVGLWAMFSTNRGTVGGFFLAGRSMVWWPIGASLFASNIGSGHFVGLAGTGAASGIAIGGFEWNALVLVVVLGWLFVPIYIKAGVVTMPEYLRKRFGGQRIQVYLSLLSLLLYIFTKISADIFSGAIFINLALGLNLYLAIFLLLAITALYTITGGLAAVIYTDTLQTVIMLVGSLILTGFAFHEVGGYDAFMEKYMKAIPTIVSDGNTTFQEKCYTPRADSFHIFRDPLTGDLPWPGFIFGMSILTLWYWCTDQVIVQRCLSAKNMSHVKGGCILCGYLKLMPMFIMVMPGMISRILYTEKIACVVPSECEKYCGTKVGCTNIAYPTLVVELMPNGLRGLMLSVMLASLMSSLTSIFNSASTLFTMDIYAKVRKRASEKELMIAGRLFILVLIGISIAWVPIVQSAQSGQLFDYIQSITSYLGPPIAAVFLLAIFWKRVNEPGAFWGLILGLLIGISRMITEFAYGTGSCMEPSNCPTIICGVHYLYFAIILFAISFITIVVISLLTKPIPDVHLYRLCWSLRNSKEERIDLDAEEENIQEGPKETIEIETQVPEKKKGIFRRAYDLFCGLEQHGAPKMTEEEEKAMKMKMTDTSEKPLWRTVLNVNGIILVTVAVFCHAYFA

[4] = tested on: transporters; design: method as in earlier work; details: known transporter targets, per category of inhibited transporters; cited from earlier work

| Structure (SMILES) | remaining activity at 5 µM ([1]; mean, concentration not given) [%] | remaining activity at 50 µM ([1]; mean, concentration not given) [%] | remaining activity at 5 µM ([3]; mean, concentration not given) [%] | remaining activity at 50 µM ([3]; mean, concentration not given) [%] | activity ([1]; mean) [%] | SGLT2/SGLT1 ACTIVITY RATIO 5 uM Mean [1] | activity ([3]; mean) [%] | CYTOTOXICITY (% of vehicle control) Mean [2] | also measured |
| --- | --- | --- | --- | --- | --- | --- | --- | --- | --- |
| C[C@@H]1O[C@@H](O[C@H]2[C@H](O[C@H]3CC[C@@]4(C)[C@@H](CC[C@]5(C)[C@@H]4CC=C4[C@@H]6CC(C)(C)CC[C@]6(C(=O)O[C@@H]6O[C@H](CO[C@@H]7O[C@H](CO)[C@@H](O)[C@H](O)[C@H]7O)[C@@H](O)[C@H](O)[C@H]6O)CC[C@]45C)[C@]3(C)CO)OC[C@H](O)[C@@H]2O)[C@H](O)[C@H](O)[C@H]1O [Dipsacoside B] |  |  |  |  |  |  |  |  | SGLT2/SGLT1 ACTIVITY RATIO [1]: 1.2 and 1.3; remaining activity at 5 µM [1]: 121%; remaining activity at 50 µM [1]: 121%; CY[…] 50 mM [2]: -12; remaining activity at 5 µM [3]: 96%; remaining activity at 50 µM [3]: 104% |
| CCCN1CCCC[C@H]1C(=O)Nc1c(C)cccc1C [Ropivacaine HCl monohydrate] | 86 | 67 | 97 | 70 |  |  |  |  | CY[…] 50 mM [2]: 0.836 |
| CN1CCC(OC(c2ccccc2)c2ccccc2)CC1 [Diphenylpyraline HCl] |  |  |  |  | 104 | 1.0 | 108 |  | CY[…] (% of vehicle control) Mean [2]: -6 % of vehicle control |
| O=C1c2cc(CO)cc(O)c2C(=O)c2c(O[C@@H]3O[C@H](CO)[C@@H](O)[C@H](O)[C@H]3O)cccc21 [Aloe-emodin-8-O-b-D-glucopyranoside] |  |  |  |  | 100 | 1.0 | 100 | -3.25 % of vehicle control |  |
| C=C[C@@]1(C)CC(=O)[C@]2(O)[C@@]3(C)[C@@H](O)CCC(C)(C)[C@@H]3[C@H](O)[C@H](OC(C)=O)[C@@]2(C)O1 [Forskolin] | 103 | 95 | 89 | 79 |  |  |  |  | CY[…] 50 mM [2]: 12 |
| COc1cc(/C=C/c2ccc(O)cc2)cc(OC)c1 [Pterostilbene] | 102 | 123 | 100 | 119 |  |  |  |  | CYTOTOXICITY [2]: -42 |
| C/C=C(\C)C(=O)O[C@H]1c2c(ccc3ccc(=O)oc23)OC(C)(C)[C@H]1OC(=O)/C(C)=C/C [praeruptorin D] |  |  |  |  | 110 | 1.4 | 79 | -9 % of vehicle control | SGLT2/SGLT1‐50μmol/L (ratio of SGLT2 to SGLT1 activities with 50 μmol/L inhibitor) [3]: 2.6 |
| CN1[C@@H]2CC[C@H]1C[C@@H](OC(c1ccccc1)c1ccccc1)C2 [benztropine] |  |  |  |  |  |  |  |  | INHIBITED TRANSPORTERS [4]: SLC6A2, SLC6A3, SCN10A |
| CCN(CC)CCOC(=O)C(c1ccccc1)c1ccccc1 [Adiphenine HCl] |  |  |  |  | 113 | 1.0 | 108 |  | CY[…] (% of vehicle control) Mean [2]: -16 % of vehicle control |
| COc1ccc(-c2coc3cc(O[C@@H]4O[C@H](CO)[C@@H](O)[C@H](O)[C@H]4O)cc(O)c3c2=O)cc1 [Sissotrin] |  |  |  |  | 106 | 1.1 | 99 | -23 % of vehicle control |  |
| Oc1ccc(/C=C/c2cc(O)cc3c2[C@H](c2cc(O)cc(O)c2)[C@@H](c2ccc(O)cc2)O3)cc1 [(+)-e-Viniferin] | 102 | 79 | 97 | 56 |  |  |  |  | CYTOTOXICITY [2]: 6 |
| CC1(C)Oc2ccc3ccc(=O)oc3c2[C@H](O)[C@@H]1O [cis-Khellactone] |  |  |  |  | 95 | 0.9 | 102 | -9 % of vehicle control |  |
| Cc1nc2sccn2c(=O)c1CCN1CCC(=C(c2ccc(F)cc2)c2ccc(F)cc2)CC1 [ritanserin, reference compound] | 64 | 15 | 76 | 44 |  |  |  |  | CYTOTOXICITY [2]: -5.28; SGLT2/SGLT1‐50μmol/L (ratio of SGLT2 to SGLT1 activities with 50 μmol/L inhibitor) [3]: 0.3 |
| Oc1cc(O)cc(/C=C/c2ccc(O)cc2O)c1 [Oxyresveratrol] | 109 | 115 | 105 | 123 |  |  |  |  | CYTOTOXICITY [2]: -89 |
| CC1(C)Oc2ccc3ccc(=O)oc3c2[C@@H](O)[C@H]1O[C@@H]1O[C@H](CO)[C@@H](O)[C@H](O)[C@H]1O [Praeroside II] |  |  |  |  | 98 | 1.0 | 98 | 10 % of vehicle control |  |
| O=c1c(-c2ccc(O)cc2)coc2cc(O[C@@H]3O[C@H](CO)[C@@H](O)[C@H](O)[C@H]3O)ccc12 [Daidzin] |  |  |  |  | 102 | 1.0 | 97 | -19 % of vehicle control |  |
| Oc1c(Br)cc(Cl)c2cccnc12 [7-Bromo-5-chloro-8-hydroxyquinoline] | 92 | 78 | 103 | 45 |  |  |  |  | CYTOTOXICITY [2]: 14 |
| OC(CCN1CCCCC1)(c1ccccc1)C1CC2C=CC1C2 (centres unmarked) [Biperiden HCl] |  |  |  |  | 75 | 0.949 | 79 |  | CY[…] (% of vehicle control) Mean [2]: -7 % of vehicle control |
| Oc1cc(O)cc(/C=C/c2ccc(O)c(O)c2)c1 [Piceatannol] | 101 | 105 | 107 | 101 |  |  |  |  | CYTOTOXICITY [2]: -87 |
| COc1cc(O)c2c(=O)c(-c3ccc(OC4OC(CO)C(O)C(O)C4O)cc3)coc2c1 (centres unmarked) [Prunetin-4-p-galactoside] |  |  |  |  | 100 | 1.2 | 81 | -26 % of vehicle control |  |
| COC(=O)C(c1ccccc1Cl)N1CCc2sccc2C1 (centres unmarked) [Clopidogrelum, clopidogrel] |  |  |  |  |  |  |  |  | SGLT2/SGLT1 ACTIVITY RATIO [1]: 1.1 and 1.0; remaining activity at 5 µM [1]: 95%; remaining activity at 50 µM [1]: 60%; CY[…] 50 mM [2]: -9; remaining activity at 5 µM [3]: 96%; remaining activity at 50 µM [3]: 54% |
| CC=C(C)C(=O)O[C@@H]1[C@H](OC(C)=O)c2c(ccc3ccc(=O)oc23)OC1(C)C [praeruptorin A] |  |  |  |  | 111 | 1.2 | 93 | -0.825 % of vehicle control | SGLT2/SGLT1‐50μmol/L (ratio of SGLT2 to SGLT1 activities with 50 μmol/L inhibitor) [3]: 3.1 |
| CC(=O)OC1c2c(ccc3ccc(=O)oc23)OC(C)(C)C1OC(=O)C=C(C)C (centres unmarked) [Samidin] |  |  |  |  | 94 | 1.1 | 85 | -10 % of vehicle control |  |
| CCC(C)C(=O)O[C@H]1[C@H](OC(C)=O)c2c(ccc3ccc(=O)oc23)OC1(C)C (some centres unmarked) [peucedanocoumarin I] |  |  |  |  | 102 | 1.1 | 95 | 4.22 % of vehicle control | SGLT2/SGLT1‐50μmol/L (ratio of SGLT2 to SGLT1 activities with 50 μmol/L inhibitor) [3]: 2 |
| CCOC(=O)c1ccc(OC2OC(CO)C(O)C(O)C2O)cc1 (centres unmarked) [Clivicolide] |  |  |  |  | 111 | 1.1 | 99 | 12 % of vehicle control |  |
